Results: the Kinase Knowledgebase extract (Sharma et al. 2016)

Biological target: PIK3CB;PIK3CG;PIK3CD;PIK3CA (human) (UniProt P48736)
Test: Enzyme Assay

Structure (SMILES) | IC50 [nM]
O=C(c1nn(-c2cccc(-c3ncon3)c2)c2c1CS(=O)(=O)c1ccccc1-2)N1CCOCC1 | 6690
O=C(c1nn(-c2ccccc2)c2c1CS(=O)(=O)c1c(-c3ccccc3)cccc1-2)N1CCOCC1 | 17900
O=C(c1nn(-c2ccccc2)c2c1CS(=O)(=O)c1ccc(Br)cc1-2)N1CCOCC1 | 1300
CN(C)Cc1noc(-c2cccc(-n3nc(C(=O)N4CCOCC4)c4c3-c3ccccc3S(=O)(=O)C4)c2)n1 | 2980
Cn1cc(-n2nc(C(=O)N3CCOCC3)c3c2-c2ccsc2S(=O)(=O)C3)ccc1=O | 2690
COc1ccc2c(c1)S(=O)(=O)Cc1c(C(=O)N3CCOCC3)nn([C@@H]3CCCN(CCC4CCOCC4)C3)c1-2 | 10300
O=C(c1nn(C2CCCNC2)c2c1CS(=O)(=O)c1cc(OC(F)(F)F)ccc1-2)N1CCOCC1 (stereo not drawn) | 10500
O=C(c1nn(-c2ccccc2)c2c1CS(=O)(=O)c1ccc(F)cc1-2)N1CCOCC1 | 987
O=C(c1nn(-c2ccccc2)c2c1CS(=O)(=O)c1sccc1-2)N1CCOCC1 | 1700
CCc1noc(Cn2nc(C(=O)N3CCOCC3)c3c2-c2ccccc2S(=O)(=O)C3)n1 | 1920
CC(=O)Nc1cccc2c1S(=O)(=O)Cc1c(C(=O)N3CCOCC3)nn(-c3ccccc3)c1-2 | 9880
NC(=O)c1cccc2c1S(=O)(=O)Cc1c(C(=O)N3CCOCC3)nn(-c3ccccc3)c1-2 | 7900
CC1CC(C)CC(n2nc(C(=O)N3CCOCC3)c3c2-c2ccccc2S(=O)(=O)C3)C1 (stereo not drawn) | 7960
CCC1c2c(C(=O)N3CCOCC3)nn(-c3ccccc3)c2-c2ccccc2S1(=O)=O (stereo not drawn) | 2470
CC(C)c1ccc(-n2nc(C(=O)N3CCOCC3)c3c2-c2ccccc2S(=O)(=O)C3)cc1 | 1470
NCCCC1c2c(C(=O)N3CCOCC3)nn(-c3ccccc3)c2-c2ccccc2S1(=O)=O (stereo not drawn) | 4520
CC(=O)N1CCC(Cn2nc(C(=O)N3CCOCC3)c3c2-c2ccccc2S(=O)(=O)C3)CC1 | 2820
O=C(c1nn(-c2cccc(CN3CCCC(F)(F)C3)c2)c2c1CS(=O)(=O)c1ccccc1-2)N1CCOCC1 | 1540
O=C(c1nn(-c2ccc(CO)cc2)c2c1CS(=O)(=O)c1ccccc1-2)N1CCOCC1 | 1060
CC1COCCN1C(=O)c1nn(-c2ccccc2)c2c1CS(=O)(=O)c1ccccc1-2 (stereo not drawn) | 13900
COc1cccc2c1S(=O)(=O)Cc1c(C(=O)N3CCOCC3)nn(C)c1-2 | 1730
COc1ccc2c(c1)-c1c(c(C(=O)N3CCOCC3)nn1-c1ccccc1)CS2(=O)=O | 3350
COc1cccc(Cn2nc(C(=O)N3CCOCC3)c3c2-c2ccccc2S(=O)(=O)C3)c1 | 1170
O=C(c1nn(C2CCNC2)c2c1CS(=O)(=O)c1ccccc1-2)N1CCOCC1 (stereo not drawn) | 4640
CS(=O)(=O)C1CCN(Cc2ccc(-n3nc(C(=O)N4CCOCC4)c4c3-c3ccccc3S(=O)(=O)C4)cc2)C1 (stereo not drawn) | 920
COCCNc1ccc2c(c1)-c1c(c(C(=O)N3CCOCC3)nn1C1CCCCC1)CS2(=O)=O | 1390
CCc1nc(-c2cccc(-n3nc(C(=O)N4CCOCC4)c4c3-c3ccccc3S(=O)(=O)C4)c2)no1 | 2590

Continued by falling IC50, values first:

IC50 [nM] | Structure (SMILES)
902 | COCCNc1ccc2c(c1)-c1c(c(C(=O)N3CCOCC3)nn1-c1ccccc1)CS2(=O)=O
824 | O=C(c1nn(C2CCOCC2)c2c1CS(=O)(=O)c1sccc1-2)N1CCOCC1
735 | O=C(CC1CCCCC1)N1CCC[C@H](n2nc(C(=O)N3CCOCC3)c3c2-c2ccccc2S(=O)(=O)C3)C1
711 | O=C(c1nn(C2CCCN(CCc3ccccc3)C2)c2c1CS(=O)(=O)c1ccccc1-2)N1CCOCC1 (stereo not drawn)
690 | Cc1ccc(-n2nc(C(=O)N3CCOCC3)c3c2-c2ccccc2S(=O)(=O)C3)cc1
643 | O=C(c1nn(-c2cccc(CN3CC(F)(F)C3)c2)c2c1CS(=O)(=O)c1ccccc1-2)N1CCOCC1
624 | O=C(c1nn(Cc2cc(Cl)cs2)c2c1CS(=O)(=O)c1ccccc1-2)N1CCOCC1
584 | CC(C)(c1ccc(-n2nc(C(=O)N3CCOCC3)c3c2-c2ccccc2S(=O)(=O)C3)cc1)N1CCOCC1
531 | O=C(c1nn(CC2CCNCC2)c2c1CS(=O)(=O)c1ccccc1-2)N1CCOCC1
516 | O=C(c1nn(-c2cccc(CN3CCCC3)c2)c2c1CS(=O)(=O)c1ccccc1-2)N1CCOCC1
509 | O=C(c1nn(CC2CCCCC2)c2c1CS(=O)(=O)c1ccccc1-2)N1CCOCC1
459 | COc1cccc2c1S(=O)(=O)Cc1c(C(=O)N3CCOCC3)nn(-c3ccccc3)c1-2
444 | O=C(c1nn([C@@H]2CCCN(CCn3ccnc3)C2)c2c1CS(=O)(=O)c1ccccc1-2)N1CCOCC1
437 | O=C(c1nn(C2CCCCC2)c2c1CS(=O)(=O)c1ncccc1-2)N1CCOCC1
437 | O=C(c1nn(-c2cccc(CN3CCC(F)CC3)c2)c2c1CS(=O)(=O)c1ccccc1-2)N1CCOCC1
424 | O=C(c1nn(-c2ccccc2)c2c1CS(=O)(=O)c1c(F)cccc1-2)N1CCOCC1
319 | O=C(c1cccc(-n2nc(C(=O)N3CCOCC3)c3c2-c2ccccc2S(=O)(=O)C3)c1)N1CCS(=O)(=O)CC1
261 | COCC(=O)N1CCC[C@H](n2nc(C(=O)N3CCOCC3)c3c2-c2ccccc2S(=O)(=O)C3)C1

IC50 [nM] | Structure (SMILES)
246 | COC1CCCN(C(=O)c2cccc(-n3nc(C(=O)N4CCOCC4)c4c3-c3ccccc3S(=O)(=O)C4)c2)C1 (stereo not drawn)
155 | O=C(c1nn(C2CCCN(CCC3CCCCC3)C2)c2c1CS(=O)(=O)c1ccccc1-2)N1CCOCC1 (stereo not drawn)
133 | O=C(c1nn([C@H]2CCCN(c3ccncc3)C2)c2c1CS(=O)(=O)c1ccccc1-2)N1CCOCC1
90 | O=C(c1nn(C2CCCN(CCCn3cccc3)C2)c2c1CS(=O)(=O)c1ccccc1-2)N1CCOCC1 (stereo not drawn)
83 | O=C(c1nn(C2CCCN(CCN3CCCC(F)(F)C3)C2)c2c1CS(=O)(=O)c1ccccc1-2)N1CCOCC1 (stereo not drawn)
80 | O=C(c1nn(C2CCCN(CCn3cccn3)C2)c2c1CS(=O)(=O)c1c(F)cccc1-2)N1CCOCC1 (stereo not drawn)
80 | O=C1CCCN1CCN1CCC[C@H](n2nc(C(=O)N3CCOCC3)c3c2-c2ccccc2S(=O)(=O)C3)C1
77 | O=C(c1nn(C2CCN(C3CCOCC3)C2)c2c1CS(=O)(=O)c1ccccc1-2)N1CCOCC1 (stereo not drawn)
57 | CC1CN(Cc2ccc(-n3nc(C(=O)N4CCOCC4)c4c3-c3ccccc3S(=O)(=O)C4)cc2)CC(C)O1 (stereo not drawn)
48 | COC(=O)CCN1CCC[C@H](n2nc(C(=O)N3CCOCC3)c3c2-c2ccccc2S(=O)(=O)C3)C1
43 | CN(C)Cc1ccc(-n2nc(C(=O)N3CCOCC3)c3c2-c2ccccc2S(=O)(=O)C3)cc1
34 | COCCNCCN1CCC[C@H](n2nc(C(=O)N3CCOCC3)c3c2-c2ccccc2S(=O)(=O)C3)C1
34 | O=C(c1nn(C2CCCN(CCN3CC[C@@H](F)C3)C2)c2c1CS(=O)(=O)c1ccccc1-2)N1CCOCC1 (stereo partly drawn)
32 | O=C(c1nn([C@H]2CCCN(CCN3CC[C@@H](F)C3)C2)c2c1CS(=O)(=O)c1ccccc1-2)N1CCOCC1
25 | O=C(c1nn([C@H]2CCCN(CCN3CCC(F)CC3)C2)c2c1CS(=O)(=O)c1ccccc1-2)N1CCOCC1
20 | CN1CCC(OCCN2CCC[C@H](n3nc(C(=O)N4CCOCC4)c4c3-c3ccccc3S(=O)(=O)C4)C2)CC1
17 | O=C(c1nn([C@H]2CCCN(CCN3CC(F)(F)C3)C2)c2c1CS(=O)(=O)c1ccccc1-2)N1CCOCC1
16 | O=C(c1nn([C@H]2CCCN(CCC3CCOCC3)C2)c2c1CS(=O)(=O)c1ncccc1-2)N1CCOCC1
